Several values for one entry are separate records, joined by “and”; a condition that tells them apart may be missing. Equal entries are not always repeated.
Molecular target: T1, LspPae (lipoprotein signal peptidase II from Pseudomonas aeruginosa) (Pseudomonas aeruginosa, UniProt Q9HVM5)
T1 construct: made in house
T1 sequence (Q9HVM5 1-169): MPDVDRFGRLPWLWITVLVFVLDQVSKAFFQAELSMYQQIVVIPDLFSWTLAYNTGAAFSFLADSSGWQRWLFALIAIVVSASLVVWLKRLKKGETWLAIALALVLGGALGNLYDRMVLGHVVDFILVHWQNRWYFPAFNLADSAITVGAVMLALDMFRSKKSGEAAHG
Assay: FRET lipopeptide peptidase assay, LspPae
Assay type: biochemical
Conditions: for Fluorescence (RFU): FRET substrate + LspA + Globomycin; for Rate (RFU/min) / Normalised rate (Vi/V0): replicates 1 and 2; for Ki: estimated Ki’ (apparent inhibition constant)
Experimental: FRET activity assays. A FRET based assay was developed using a labelled lipopeptide substrate (Supplementary Methods, Supplementary Fig. 3b) to directly monitor the protease activity of LspA. The optimised LspMrs assay buffer included 100 mM Tris/HCl pH 7.8, 150 mM NaCl and 0.09%(w/v) DDM. The corresponding optimized buffer for LspPae included 100 mM MES/NaOH pH 5.6, 150 mM NaCl and 0.05%(w/v) LMNG. All assays were performed at 37 °C.
Reaction mixtures were prepared by vortexing (Clifton, cyclone CM-1) for 2 s and incubated at 37 °C, 800 rpm for 10 to 30 min. […] For dose-response assays, the final DMSO concentration in all reactions was 10%(v/v). Reaction mixtures were pipetted into wells of a 96- (Thermo Scientific) or a 384-well plate (4titude®) and incubated for 10 min at 37 °C in a SpectraMax M3 or a SpectraMax M5e plate reader (Molecular devices) prior to starting the assay. Assays were initiated by adding enzyme to a final concentration in the range 10–300 nM. Total reaction mixture volume was 50 μL. Reactions were monitored by fluorescence (Ex/Em, 320 nm/420 nm) for 30 to 60 min at 37 °C. Initial rates were calculated from the fluorescence intensity versus time progress curves (Supplementary Figs. 5 and 6). Occasionally, lag periods in the progress curves were observed (Supplementary Discussion). In such cases, initial rates were calculated after the lag period had passed (typically 1–5 min) and a steady rate had been established. Dose-response plots to determine IC50 values were generated using Prism® 5 software from GraphPad.
It was possible to convert units of fluorescence change into moles of substrate consumed or products formed because pure products of LspA action on Abz-LALAGC*SS-nY-NH2 had been synthesized and were available. These were used to create a standard curve of fluorescence versus moles of the two products in equimolar amounts and to calculate specific activity values. […]
One consequence of LspMrs having a relatively low specific activity is that, in order to get a reliable signal in activity assays, it was necessary to raise enzyme concentration. For kinetic measurements generally, it is desirable to use an enzyme concentration that is much lower than that of the substrate. In this situation, the usual assumption that added and free substrate concentrations are equal is valid. At high enzyme concentrations [E] therefore, and especially in the case of tight ligand binding where the inhibition constant, Ki, is small, a measured IC50 is limited to [E]/2 4–6. In such circumstances, a meaningful IC50 or Ki can only be obtained with considerable effort. With a few exceptions in the current study, this situation prevailed with both LspA orthologs where IC50 values came close to [E]/2 (Table 1 and Supplementary Table 3, Supplementary Fig. 6). […]
Inhibition of LspA from E. coli by globomycin has been described as non-competitive7. The evidence provided in support o f this conclusion included an insensitivity of IC 50 to substrate concentration and the fact that the Vmax but not the K m changed with globomycin concentration. It was of interest to determine if a similar mode of inhibition applied to LspPae and LspMrs. From published work7–9 and from FRET-based kinetics measurements reported here, we know that globomycin binds with high affinity (Supplementary Fig. 6). Tight binding means that a more in-depth analysis must be carried out in order to identify inhibition type. For such analysis, it is important to know active enzyme concentration accurately. Fortunately, it was possible to use the property of tight inhibitor binding to measure the concentration of active enzyme ( Supplementary Fig. 18a). In the case of LspPae, the estimated value and the concentration determined spectroscopically agreed remarkably well. Parenthetically we note that knowing active LspPae concentration accurately enabled a characterization of the myxovirescin sample used in this study. Myxovirescin also binds tightly to LspA (Supplementary Fig. 6). […]

[1] = Suppl. Fig. 18a, [Globomycin] 0.02 M
[2] = Suppl. Fig. 18a, [Globomycin] 0.08 M
[3] = Suppl. Fig. 18a, [Globomycin] 0.1 M
[4] = Suppl. Fig. 18a, [Globomycin] 0.12 M
[5] = Suppl. Fig. 18a, [Globomycin] 0.15 M
[6] = Suppl. Fig. 18a, [Globomycin] 0.25 M

CCCCCC[C@H]1OC(=O)CNC(=O)[C@H]([C@H](C)O)NC(=O)[C@H](CO)NC(=O)[C@H]([C@H](C)CC)NC(=O)[C@H](CC(C)C)N(C)C(=O)[C@@H]1C [globomycin]
inhibitor on-rates (5-fold molar excess of antibiotic added 20 to 30 min after start of reaction): fast
Fluorescence (RFU) (time 26.5 min): 472.821 RFU
Fluorescence (RFU) (time 27 min): 466.895 RFU
Fluorescence (RFU) (time 27.5 min): 470.521 RFU
Fluorescence (RFU) (time 28 min): 460.426 RFU
Fluorescence (RFU) (time 28.5 min): 463.196 RFU
Fluorescence (RFU) (time 29 min): 462.392 RFU
Fluorescence (RFU) (time 29.5 min): 469.501 RFU
Fluorescence (RFU) (time 30 min): 460.374 RFU
Fluorescence (RFU) (time 30.5 min): 459.928 RFU
Fluorescence (RFU) (time 31 min): 456.673 RFU
Fluorescence (RFU) (time 31.5 min): 461.288 RFU
Fluorescence (RFU) (time 32 min): 457.637 RFU
Fluorescence (RFU) (time 32.5 min): 459.756 RFU
Fluorescence (RFU) (time 33 min): 461.040 RFU
Fluorescence (RFU) (time 33.5 min): 455.548 RFU
Fluorescence (RFU) (time 34 min): 459.251 RFU
Fluorescence (RFU) (time 34.5 min): 461.912 RFU
Fluorescence (RFU) (time 35 min): 462.029 RFU
Fluorescence (RFU) (time 35.5 min): 459.871 RFU
Fluorescence (RFU) (time 36 min): 456.705 RFU
Fluorescence (RFU) (time 36.5 min): 457.128 RFU
Fluorescence (RFU) (time 37 min): 457.399 RFU
Fluorescence (RFU) (time 37.5 min): 460.693 RFU
Fluorescence (RFU) (time 38 min): 454.401 RFU
Fluorescence (RFU) (time 38.5 min): 457.430 RFU
Fluorescence (RFU) (time 39 min): 456.060 RFU
Fluorescence (RFU) (time 39.5 min): 454.659 RFU
Fluorescence (RFU) (time 40 min): 457.707 RFU
Fluorescence (RFU) (time 40.5 min): 450.482 RFU
Fluorescence (RFU) (time 41 min): 454.135 RFU
Fluorescence (RFU) (time 41.5 min): 449.262 RFU
Fluorescence (RFU) (time 42 min): 454.556 RFU
Fluorescence (RFU) (time 42.5 min): 450.049 RFU
Fluorescence (RFU) (time 43 min): 449.698 RFU
Fluorescence (RFU) (time 43.5 min): 456.047 RFU
Fluorescence (RFU) (time 44 min): 454.046 RFU
Fluorescence (RFU) (time 44.5 min): 452.003 RFU
Fluorescence (RFU) (time 45 min): 447.269 RFU
Fluorescence (RFU) (time 45.5 min): 454.250 RFU
Fluorescence (RFU) (time 46 min): 454.835 RFU
Fluorescence (RFU) (time 46.5 min): 452.245 RFU
Fluorescence (RFU) (time 47 min): 453.938 RFU
Fluorescence (RFU) (time 47.5 min): 452.432 RFU
Fluorescence (RFU) (time 48 min): 453.748 RFU
Fluorescence (RFU) (time 48.5 min): 446.264 RFU
Fluorescence (RFU) (time 49 min): 454.134 RFU
Fluorescence (RFU) (time 49.5 min): 458.300 RFU
Fluorescence (RFU) (time 50 min): 453.740 RFU
Fluorescence (RFU) (time 50.5 min): 458.019 RFU
Fluorescence (RFU) (time 51 min): 452.119 RFU
IC50 (IC50, 20 nM LspPae, substrate 2.5 µM): 5.32 nM and 7.73 nM
IC50 (IC50, 20 nM LspPae, substrate 5 µM): 6.43 nM and 11.1 nM
IC50 (IC50, 20 nM LspPae, substrate 7.5 µM): 6.63 nM and 10.1 nM
IC50 (IC50, 20 nM LspPae, substrate 10 µM): 7.18 nM and 9.58 nM
IC50 (IC50, 20 nM LspPae, substrate 20 µM): 5.81 nM and 8.79 nM
IC50 (IC50, 20 nM LspPae, substrate 30 µM): 5.73 nM and 9.79 nM
IC50 (IC50, FRET, 0.1 µM enzyme, 30 µM substrate, initial rates): 57 nM
IC50 (IC50, LspPae concentration 10 nM): 5.5 nM and 7.7 nM
IC50 (IC50, LspPae concentration 20 nM): 10.6 nM and 17.6 nM
IC50 (IC50, LspPae concentration 40 nM): 22.6 nM and 26.4 nM
IC50 (IC50, LspPae concentration 60 nM): 27.8 nM and 39 nM
IC50 (IC50, LspPae concentration 80 nM): 37.9 nM and 55.3 nM
IC50 (IC50, LspPae concentration 100 nM): 52.6 nM and 61.3 nM
Rate (RFU/min) (LspPae + Globomycin, log [globomycin] (µM) -0.60): 0.6 RFU/min and 0.7 RFU/min
Rate (RFU/min) (LspPae + Globomycin, log [globomycin] (µM) -0.82): 0.856 RFU/min and 1.1 RFU/min
Rate (RFU/min) (LspPae + Globomycin, log [globomycin] (µM) -0.92): 0.9 RFU/min and 0.95 RFU/min
Rate (RFU/min) (LspPae + Globomycin, log [globomycin] (µM) -1.00): 4.1 RFU/min and 3.2 RFU/min
Rate (RFU/min) (LspPae + Globomycin, log [globomycin] (µM) -1.10): 12.3 RFU/min and 11.9 RFU/min
Rate (RFU/min) (LspPae + Globomycin, log [globomycin] (µM) -1.30): 31.7 RFU/min and 30.1 RFU/min
Rate (RFU/min) (LspPae + Globomycin, log [globomycin] (µM) -1.70): 42.7 RFU/min
Normalised rate (Vi/V0) [1]: 0.8723 and 0.8656
Rate (RFU/min) [1]: 40.92 RFU/min and 41.48 RFU/min
Normalised rate (Vi/V0) (Suppl. Fig. 18a, [Globomycin] 0.05 M): 0.6284 and 0.6375
Normalised rate (Vi/V0) [2]: 0.2526 and 0.2533
Rate (RFU/min) [2]: 11.85 RFU/min and 12.14 RFU/min
Normalised rate (Vi/V0) [3]: 0.07205 and 0.07513
Rate (RFU/min) [3]: 3.38 RFU/min and 3.6 RFU/min
Normalised rate (Vi/V0) [4]: 0.01684 and 0.01523
Rate (RFU/min) [4]: 0.79 RFU/min and 0.73 RFU/min
Normalised rate (Vi/V0) [5]: 0.0162 and 0.00793
Rate (RFU/min) [5]: 0.76 RFU/min and 0.38 RFU/min
Normalised rate (Vi/V0) [6]: 0.02132 and 0.008139
Rate (RFU/min) [6]: 1 RFU/min and 0.39 RFU/min
Rate (RFU/min) (Suppl. Fig. 18a): 29.48 RFU/min and 30.55 RFU/min
IC50 (average IC50, 20 nM LspPae, substrate 2.5 or 5 to 30 µM): ~10 nM
Ki (Morrison analysis, 30 µM substrate, 0.1 µM LspPae): 0.74 ± 0.41 nM
Ki (from dependence of IC50 on enzyme concentration, IC50 = Ki’ + [E]/2): 1.96 ± 3 nM
